{"source": "patent US9604931B2", "about": "“Nuclear receptor binding agents” (GTx, Inc., priority 2007, dated 2017)", "key": {"[1]": {"tested_on": "Ang II induced cardiac fibrosis", "test": "Angiotensin II model, cardiac fibrosis", "type": "in vivo, ovariectomized C57/BJ6 and ERβKO mice", "method": "(§1) Thirty, ten week old female ovariectomized C57/BJ6 mice, were obtained from Harlan/Sprague Dawley and were housed in 12 hour on/off lighting and fed rodent chow devoid of soy or most plant products. Ovariectomized ERβKO mice were obtained from Ken Korach, NIEHS. The ERβ mice were originally created by Drs. Smithies, Gustafsson, and colleagues. All mice were identically housed and fed the same chow.\n(§2) This pellet is well documented to produce physiological levels of E2 in the serum of mice.\nLeft ventricular tissues were fixed in 4% paraformaldehyde solution. Paraffin-embedded tissue sections (5 um) were stained with Masson's trichrome for the presence of interstitial collagen fiber accumulation indicative of cardiac fibrosis. The ratio of interstitial fibrosis to the total left ventricular area was calculated from 10 randomly selected microscopic fields from each of five sections per heart using NIH imageJ analysis software (n=5 mice per condition). Further quantification of collagen deposition was made by ventricular content of hydroxyproline, a breakdown product of collagen, determined by a modified method of Bergman and Loxley (19). The ventricular tissues were homogenized and hydrolyzed in 6 N HCl at 110° C. for 24 h in a sealed reaction vial. The sample was dried and the residue re-suspended in sterile water. 0.5 ml of chloramine T was added for 5 min, then Ehrlich's reagent (3 ml) was added and the mixture left for 18 h at room temperature. The intensity of the red coloration that developed was measured by a spectrophotometer at 558 nm."}, "[2]": {"tested_on": "high fat diet induced obesity in already obese mice", "test": "High fat diet induced obesity, treatment study (study 3)", "type": "in vivo, C57BL6 male mice", "method": "For the treatment obesity study (where the animals were fed with high fat diet for six weeks prior to beginning drug treatment for 18 weeks), MRI scans were performed at weeks 0, 6, 12, 18 and 24.\nAs the first two studies were designed to prevent obesity (i.e. animals were fed with a high fat diet and treated simultaneously), a subsequent study was conducted to evaluate the ability of 12u to affect body composition in mice that were already fed with the high fat diet and were obese. Mice were divided into three groups with one group fed with normal diet (control) and the other two groups fed with the high fat diet for 6 weeks. […] All the animals were maintained in their respective diets during the entire course of the study."}, "[3]": {"tested_on": "LPS induced THP-1 macrophage cell adhesion to bEND-3 endothelial cells", "test": "Macrophage adhesion assay", "type": "cell-based", "method": "To determine the anti-inflammatory effects of ER-β NRBAs in vitro, a macrophage adhesion assay was performed. Macrophages adhere to endothelial cells due to elevated levels of pro-inflammatory cytokines. This principle was used in this assay to determine the effect of one of the ER-NRBAs on bacterial lipopolysaccharide (LPS) induced THP-1 macrophage cell adhesion to bEND-3 endothelial cells."}, "[4]": {"tested_on": "MHC, phospho-ERK, MCIP-1 in left ventricle", "test": "Angiotensin II model, markers of cardiac hypertrophy", "type": "in vivo, ovariectomized C57/BJ6 and ERβKO mice", "method": "as §1, §2\nRT-PCR was accomplished using the following primers. GAPDH expression served as control gene for all studies. MCIP1, 5′-[…] and […]; GAPDH, 5′-[…] and […]. • For relative protein detection, immunoblots were carried out on protein extracted from the left ventricles of mice from all conditions, following separation by SDS-PAGE and transfer to nitrocellulose. Cardiac myosin heavy chain (MHC) and MCIP antibodies (ABCAM, Cambridge, Mass. and Santa Cruz Biotechnology Inc., Santa Cruz, Calif.), and brain natriuretic peptide (BNP) antibodies (Penninsula Labs, Mountain View, Calif.) were used."}, "[5]": {"tested_on": "Ang II induced left ventricular hypertrophy", "test": "Angiotensin II model, cardiac hypertrophy", "type": "in vivo, ovariectomized C57/BJ6 and ERβKO mice", "details": "21 days", "method": "as §1, §2\nAt inception and after 21 days, the mice were weighed. Blood pressure was measured 4 times during the 21-day period, using the CODA non-invasive blood pressure measuring system. At 21 days the hearts were stopped in diastole by CdCl2 administration. The hearts were removed and weighed and the ratio of heart per total body weight was determined. Next, the hearts were dissected and the left ventricles were weighed and the ratio of left ventricle per total body weight was determined. […] For comparison ERβ gene-deleted mice were subjected to the same conditions of Ang II±E2 or the 12u compound. For histology, the hearts were and sectioned, and stained with hematoxylin and eosin, or Masson stain (for collagen)"}, "[6]": {"tested_on": "Ang II induced hypertension", "test": "Angiotensin II model, blood pressure", "type": "in vivo, ovariectomized C57/BJ6 and ERβKO mice", "design": "Systolic pressure / Diastolic pressure: unit: mmHg", "details": "for Diastolic pressure / Systolic pressure: Ang II", "method": "as §1, with “ERβ gene-deleted (ERβKO or ERβ-KO)” for “ERβKO”\nas §2\nBlood pressure was measured 4 times during the 21-day period, using the CODA non-invasive blood pressure measuring system (Kent Scientific, Torrington, Conn.). Measurements were done by volume pressure recordings of the tail."}, "[7]": {"tested_on": "genes implicated in lipogenesis, lypolysis, anti-oxidant and other related pathways", "test": "TaqMan PCR gene expression arrays on tissues of high fat diet mice", "type": "in vivo, C57BL6 male mice", "source_text": "RNA extracted from WAT, BAT, liver and muscle were reverse transcribed using cDNA synthesis kit (Applied biosystems, Foster city, CA).\nRNA from liver, muscle, WAT and BAT were applied to these arrays."}, "[8]": {"molecular_target": "ER-β ligand binding domain (LBD) (Homo sapiens (Human), UniProt Q92731)", "sequence (Q92731 264-498, species assumed)": "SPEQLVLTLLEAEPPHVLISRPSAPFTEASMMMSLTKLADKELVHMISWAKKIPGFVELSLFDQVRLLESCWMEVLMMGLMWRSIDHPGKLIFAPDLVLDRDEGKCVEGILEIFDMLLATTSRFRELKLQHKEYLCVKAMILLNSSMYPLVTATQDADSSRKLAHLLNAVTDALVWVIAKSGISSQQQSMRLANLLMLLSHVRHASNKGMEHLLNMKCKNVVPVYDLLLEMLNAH", "test": "Ligand binding assay of 14m and 12u, ER-β (Example 22A)"}, "[9]": {"details": "Brown Adipose Tissue, vs high fat diet vehicle, >2-fold, p<0.01"}, "[10]": {"details": "Liver, vs high fat diet vehicle, >2-fold, p<0.01"}, "[11]": {"details": "White Adipose Tissue, vs high fat diet vehicle, >2-fold, p<0.01"}}, "note": "Entries after “also recorded” stand apart in the source; their conditions may differ."}
{"smiles": "O=c1c2c(O)cc(O)cc2c(Br)cn1-c1ccc(O)cc1", "note": "[12u, 4-bromo-6,8-dihydroxy-2-(4-hydroxyphenyl)isoquinolin-1(2H)-one]", "values": [{"measurement": "Ventricular hydroxyproline content", "setting": "[1]; WT mice, not ERβKO", "result": "significantly inhibited the hydroxyproline content"}, {"measurement": "Ang II induced cardiac fibrosis (interstitial collagen)", "setting": "[1]; only in WT mice", "result": "significantly inhibited fibrosis; also recorded: prevented"}, {"measurement": "Body weight versus normal diet control mice", "setting": "[2]; by week 16", "result": "not significantly different from normal diet control mice"}, {"measurement": "Body fat increase (MRI)", "setting": "[2]; obese mice, 30 mg/kg/day s.c.", "result": "reduced"}, {"measurement": "Body weight gain after start of treatment", "setting": "[2]; obese mice, 30 mg/kg/day s.c. from week 6", "result": "prevented further gains in body weight"}, {"measurement": "Adhesion of 3H labeled THP-1 cells to bEND-3 cells", "setting": "[3]", "result": "significantly inhibited"}, {"measurement": "Ang II induced elevations in phospho-ERK (p-ERK)", "setting": "[4]; wildtype animals", "result": "partially prevented"}, {"measurement": "MCIP-1 levels", "setting": "[4]; wildtype mice, irrespective of Ang II treatment", "result": "robustly elevated MCIP-1 levels"}, {"measurement": "Ang II induced increase in heart size and total heart weight", "setting": "[5]", "result": "prevented the increased size"}, {"measurement": "Ang II induced left ventricular hypertrophy (LVW/BW)", "setting": "[5]; wildtype but not ERβKO mice", "result": "largely prevented; also recorded: prevented Ang II induced cardiac hypertrophy and increased heart size"}, {"measurement": "Ang II induced hypertension, diastolic pressure", "setting": "[6]; ERβ-KO mice, 21 days", "result": "unchanged"}, {"measurement": "Ang II induced hypertension, systolic pressure", "setting": "[6]; ERβ-KO mice, 21 days", "result": "mildly reduced"}, {"measurement": "Diastolic pressure", "setting": "[6]; ERβKO, 7 days", "result": 98}, {"measurement": "Systolic pressure", "setting": "[6]; ERβKO, 7 days", "result": 143}, {"measurement": "Diastolic pressure", "setting": "[6]; ERβKO, 14 days", "result": 98}, {"measurement": "Systolic pressure", "setting": "[6]; ERβKO, 14 days", "result": 147}, {"measurement": "Diastolic pressure", "setting": "[6]; ERβKO, 21 days", "result": 96}, {"measurement": "Systolic pressure", "setting": "[6]; ERβKO, 21 days", "result": 146}, {"measurement": "Diastolic pressure", "setting": "[6]; ERβKO, time 0", "result": 87}, {"measurement": "Systolic pressure", "setting": "[6]; ERβKO, time 0", "result": 123}, {"measurement": "Diastolic pressure", "setting": "[6]; WT, 7 days", "result": 88}, {"measurement": "Systolic pressure", "setting": "[6]; WT, 7 days", "result": 120}, {"measurement": "Diastolic pressure", "setting": "[6]; WT, 14 days", "result": 87}, {"measurement": "Systolic pressure", "setting": "[6]; WT, 14 days", "result": 125}, {"measurement": "Diastolic pressure", "setting": "[6]; WT, 21 days", "result": 86}, {"measurement": "Systolic pressure", "setting": "[6]; WT, 21 days", "result": 130}, {"measurement": "Diastolic pressure", "setting": "[6]; WT, time 0", "result": 85}, {"measurement": "Systolic pressure", "setting": "[6]; WT, time 0", "result": 120}, {"measurement": "Ang II induced hypertension", "setting": "[6]; wildtype mice, 21 days", "result": "largely prevented; also recorded: prevented Ang II induced cardiac hypertension"}]}
{"smiles": "N#Cc1cn(-c2ccc(O)cc2)c(=O)c2c(O)cc(O)cc12", "note": "[14m, 6,8-dihydroxy-2-(4-hydroxyphenyl)-1-oxo-1,2-dihydroisoquinoline-4-carbonitrile]", "values": [{"measurement": "High fat diet increase in expression of lipogenesis genes (LPL, FASN, SREBP-1, PLTP, Dhcr24)", "setting": "[7]; BAT and WAT", "result": "reversed"}, {"measurement": "Ddit3 gene expression Increase/Decrease", "setting": "[7]; [9]", "result": "Decrease"}, {"measurement": "Dhcr24 gene expression Increase/Decrease", "setting": "[7]; [9]", "result": "Decreased"}, {"measurement": "ER-β gene expression Increase/Decrease", "setting": "[7]; [9]", "result": "Increased"}, {"measurement": "GPx-3 gene expression Increase/Decrease", "setting": "[7]; [9]", "result": "Increase"}, {"measurement": "LPL gene expression Increase/Decrease", "setting": "[7]; [9]", "result": "Decrease"}, {"measurement": "PLTP gene expression Increase/Decrease", "setting": "[7]; [9]", "result": "Decrease"}, {"measurement": "UCP-1 gene expression Increase/Decrease", "setting": "[7]; [9]", "result": "increase in UCP-1 gene expression; also recorded: Increased"}, {"measurement": "CIDEA gene expression Increase/Decrease", "setting": "[7]; [10]", "result": "Decrease"}, {"measurement": "GPx-3 gene expression Increase/Decrease", "setting": "[7]; [10]", "result": "Increase"}, {"measurement": "Ddit3 gene expression Increase/Decrease", "setting": "[7]; [11]", "result": "Decrease"}, {"measurement": "FASN gene expression Increase/Decrease", "setting": "[7]; [11]", "result": "Decrease"}, {"measurement": "LPL gene expression Increase/Decrease", "setting": "[7]; [11]", "result": "Decrease"}, {"measurement": "SREBP1 gene expression Increase/Decrease", "setting": "[7]; [11]", "result": "Decrease"}, {"measurement": "Ki", "setting": "[8]", "result": 5.35, "unit": "nM"}]}
